Results published in patent publication US11273151B2, “Methods of treating tumors and cancer, and identifying candidate subjects for such treatment” (ICAHN SCHOOL OF MEDICINE AT MOUNT SINAI, priority 2015, dated 2022).
Entries after “also recorded” stand apart in the source; their conditions may differ.

Legend:
[1] = test system: SK-BR-3; test: Clonogenic cell proliferation assay, SK-BR-3; type: cell-based, human; details: 10 μM; SK-BR-3, p53 conformational mutation
Method: (§1) For clonogenic assay, cells were plated in triplicate at 1×10^3 cells in 6-well plates. Cells were treated or genetically manipulated as described. After 10 to 14 days, colonies were stained with 1% crystal violet in ethanol and photographed.

[2] = test system: MDA-MB-231; test: Clonogenic cell proliferation assay, MDA-MB-231; type: cell-based, human; details: 10 μM; MDA-MB-231, p53 DNA-contact mutation
Method: as §1

[3] = test system: TEAD/YAP dependent transcription; test: TEAD4 luciferase reporter assay; type: cell-based, human
Method: Cells were plated at 2×10^4 cells/well in 24 well plates, unless otherwise stated, 48 hours before collection and treated or genetically manipulated as described. Firefly and renilla luciferase activities were assayed with the dual luciferase assay system (Promega, Madison Wis., USA), as directed, and firefly luciferase activity was normalized to renilla luciferase activity. Firefly and renilla luminescence were measured with the TD-20e Luminometer (Turner).

[4] = molecular target: ROCK2 (Homo sapiens, UniProt O75116); details: read-out: reported ICD50 for inhibition of ROCK2; cited from earlier work
Sequence of ROCK2 (O75116 whole entry): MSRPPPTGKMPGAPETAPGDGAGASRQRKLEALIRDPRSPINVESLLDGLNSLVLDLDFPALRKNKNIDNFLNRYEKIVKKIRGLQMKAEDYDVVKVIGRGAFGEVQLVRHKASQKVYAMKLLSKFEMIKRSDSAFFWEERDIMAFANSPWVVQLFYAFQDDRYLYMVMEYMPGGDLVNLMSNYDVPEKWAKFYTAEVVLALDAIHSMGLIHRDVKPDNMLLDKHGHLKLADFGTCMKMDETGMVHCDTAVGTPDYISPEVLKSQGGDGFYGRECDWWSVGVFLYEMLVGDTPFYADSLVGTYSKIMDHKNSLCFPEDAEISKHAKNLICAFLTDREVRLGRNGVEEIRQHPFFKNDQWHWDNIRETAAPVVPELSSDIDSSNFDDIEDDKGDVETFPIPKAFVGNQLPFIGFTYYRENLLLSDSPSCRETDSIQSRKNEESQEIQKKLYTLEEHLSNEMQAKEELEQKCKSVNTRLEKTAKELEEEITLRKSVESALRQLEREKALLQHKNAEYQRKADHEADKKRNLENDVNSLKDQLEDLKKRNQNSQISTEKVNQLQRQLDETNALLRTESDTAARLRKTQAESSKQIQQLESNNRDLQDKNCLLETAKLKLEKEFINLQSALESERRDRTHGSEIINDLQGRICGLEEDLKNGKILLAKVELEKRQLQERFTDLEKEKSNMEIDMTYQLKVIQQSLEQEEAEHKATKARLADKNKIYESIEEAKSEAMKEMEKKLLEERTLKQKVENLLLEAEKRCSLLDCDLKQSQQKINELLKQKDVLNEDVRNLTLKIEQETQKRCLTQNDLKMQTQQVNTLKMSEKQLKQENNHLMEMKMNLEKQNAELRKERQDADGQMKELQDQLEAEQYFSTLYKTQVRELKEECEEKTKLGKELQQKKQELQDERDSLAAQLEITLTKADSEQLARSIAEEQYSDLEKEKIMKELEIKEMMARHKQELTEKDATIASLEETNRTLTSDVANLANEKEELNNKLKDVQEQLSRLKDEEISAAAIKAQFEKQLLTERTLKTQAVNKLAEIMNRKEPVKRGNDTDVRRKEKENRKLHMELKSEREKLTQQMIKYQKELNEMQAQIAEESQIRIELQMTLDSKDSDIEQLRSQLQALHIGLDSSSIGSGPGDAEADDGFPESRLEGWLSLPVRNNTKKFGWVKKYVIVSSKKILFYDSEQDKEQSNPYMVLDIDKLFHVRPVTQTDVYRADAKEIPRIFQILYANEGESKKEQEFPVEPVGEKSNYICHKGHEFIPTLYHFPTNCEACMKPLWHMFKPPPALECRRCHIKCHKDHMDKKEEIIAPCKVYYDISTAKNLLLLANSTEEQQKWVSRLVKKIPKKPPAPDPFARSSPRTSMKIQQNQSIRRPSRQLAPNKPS

[5] = molecular target: ROCK1 (Homo sapiens, UniProt Q13464); details: read-out: reported ICD50 for inhibition of ROCK1; cited from earlier work
Sequence of ROCK1 (Q13464 whole entry): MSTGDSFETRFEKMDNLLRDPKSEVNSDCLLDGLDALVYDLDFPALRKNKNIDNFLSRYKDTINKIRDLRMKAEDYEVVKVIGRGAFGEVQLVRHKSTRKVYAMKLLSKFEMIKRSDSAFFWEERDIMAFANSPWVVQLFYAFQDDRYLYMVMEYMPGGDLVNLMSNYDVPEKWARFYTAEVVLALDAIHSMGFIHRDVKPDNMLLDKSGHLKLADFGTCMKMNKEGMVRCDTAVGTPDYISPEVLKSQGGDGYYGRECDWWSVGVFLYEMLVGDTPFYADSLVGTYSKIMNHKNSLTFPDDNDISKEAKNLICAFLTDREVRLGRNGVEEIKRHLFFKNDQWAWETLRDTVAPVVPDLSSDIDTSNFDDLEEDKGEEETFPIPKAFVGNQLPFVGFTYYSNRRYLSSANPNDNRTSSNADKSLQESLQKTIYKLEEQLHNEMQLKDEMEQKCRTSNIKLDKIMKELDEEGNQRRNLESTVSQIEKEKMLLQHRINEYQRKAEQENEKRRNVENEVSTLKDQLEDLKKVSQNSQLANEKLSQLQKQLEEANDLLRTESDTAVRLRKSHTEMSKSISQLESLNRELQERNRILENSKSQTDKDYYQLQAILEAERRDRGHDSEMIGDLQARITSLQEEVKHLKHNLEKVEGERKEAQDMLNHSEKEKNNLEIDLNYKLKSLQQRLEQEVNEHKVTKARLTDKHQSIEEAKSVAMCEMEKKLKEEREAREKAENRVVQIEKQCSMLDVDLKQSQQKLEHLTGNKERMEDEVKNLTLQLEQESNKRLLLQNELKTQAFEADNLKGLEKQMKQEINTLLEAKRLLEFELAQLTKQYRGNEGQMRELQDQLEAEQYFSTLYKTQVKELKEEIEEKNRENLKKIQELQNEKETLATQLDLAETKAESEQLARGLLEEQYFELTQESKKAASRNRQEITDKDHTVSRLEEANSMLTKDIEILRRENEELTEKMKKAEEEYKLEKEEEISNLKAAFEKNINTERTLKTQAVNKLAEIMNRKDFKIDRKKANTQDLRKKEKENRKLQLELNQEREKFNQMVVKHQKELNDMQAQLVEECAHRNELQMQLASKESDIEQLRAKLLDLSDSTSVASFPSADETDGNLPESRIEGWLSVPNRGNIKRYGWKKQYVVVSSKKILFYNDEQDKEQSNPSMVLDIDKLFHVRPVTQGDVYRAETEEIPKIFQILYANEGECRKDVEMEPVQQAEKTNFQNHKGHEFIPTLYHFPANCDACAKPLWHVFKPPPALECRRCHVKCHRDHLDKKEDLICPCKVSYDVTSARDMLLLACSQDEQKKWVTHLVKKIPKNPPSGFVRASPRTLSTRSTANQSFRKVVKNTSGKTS

[6] = test system: tumor lines with p53 DNA-contact mutations; test: Clonogenic cell proliferation assay, p53 DNA-contact mutant tumor lines; type: cell-based, human
Method: as §1

[7] = test system: MDA-MB-468; test: Clonogenic cell proliferation assay, MDA-MB-468; type: cell-based, human; details: MDA-MB-468, p53-DNA contact tumor line
Method: as §1

[8] = test system: HCC-1395; test: Clonogenic cell proliferation assay, HCC-1395; type: cell-based, human; details: HCC-1395, p53 conformational mutant line
Method: as §1

[9] = test system: tumor lines harboring mutations in Hippo pathway core components; test: Proliferation of tumor lines with Hippo pathway core component lesions; type: cell-based; details: tumor cells with lesions in Hippo pathway core components
Method: as §1

[10] = test system: tumor lines expressing p53 conformational mutations; test: Clonogenic cell proliferation assay, p53 conformational mutant tumor lines; type: cell-based, human; details: for inhibition of proliferation: single agent, concentration not given
Method: as §1

[11] = test system: HCC-193; test: Clonogenic cell proliferation assay, HCC-193; type: cell-based, human; details: HCC-193, p53-DNA contact tumor line
Method: as §1

[12] = test system: non-tumorigenic cells; test: Proliferation of non-tumorigenic cells; type: cell-based; details: FIG. 7
Method: as §1

[13] = test system: SK-LMS-1; test: Clonogenic cell proliferation assay, SK-LMS-1; type: cell-based, human; details: SK-LMS-1, p53 conformational mutation; concentration not given
Method: as §1

[14] = test system: TEAD endogenous target gene expression; test: Quantitative real-time PCR of TEAD endogenous target genes; type: cell-based, human; details: p53 DNA-contact mutant tumor lines
Method: Total RNA was extracted from cells using QIAshredder (Qiagen, Valencia, Calif., USA) and RNeasy Mini kit (Qiagen) following the manufacturer's instructions. First-strand cDNA synthesis was performed using Superscript II reverse transcriptase (Invitrogen, Carlsbad, Calif., USA) according to the manufacturer's instructions. Quantitative PCR was carried out using the ViiA™ 7 Real-Time PCR System (Life Technologies) using the FastStart SYBR Green Master mix (Roche, 04673492001). Primers were as follows: PCR was performed in 384 well plates using 10 μl volumes under the following conditions: 95° C. for 15 min, followed by 40 cycles of 94° C. for 15 sec, 61° C. for 30 sec, and 72° C. for 30 sec. Specificity was verified by a dissociation curve. Results were analyzed with ViiA7 RUO software (Life Technologies).

[15] = test system: MCF10A cells; test: Anchorage-independent growth assay in soft agar; type: cell-based; details: FIG. 4C
Method: Growth in soft agar was determined by seeding 2.5×10^3 MCF10A cells in 1 ml of growth media containing 0.3% agar (BD 214050) on top of 1 ml of 0.48% agar in 35-mm dishes. Cells were fed every 4 days for 3 weeks with 0.2 mL of growth medium. Colonies were stained with 1% crystal violet in ethanol and photographed. Colony density was measured using Image J. Assays were conducted in triplicate.

[16] = single agent, concentration not given

O=S(=O)(c1cccc2cnccc12)N1CCCNCC1 [Fasudil]
effect on proliferation [1]: no effect | effect on proliferation [2]: no effect | inhibition of TEAD/YAP dependent transcription (TEAD reporter activity) ([3]; 10 μM, MDA-MB-231, FIG. 5A): little if any detectable inhibition; also recorded: lack of effect

Cc1cncc2cccc(S(=O)(=O)N3CCCN(C(=O)CN)C[C@@H]3C)c12 [Glycyl-H-1152]
IC50 [4]: 11.8 nM | IC50 [5]: 6 nM | inhibition of TEAD/YAP dependent transcription ([3]; 1 μM, MDA-MB-231, FIG. 5A): marked inhibition | inhibition of proliferation ([6]; 1 μM): strikingly and specifically inhibited proliferation | concentration for specific inhibition of proliferation, lower than Y-27632 ([6]; relative to Y-27632): 10 fold

Oc1nc(-c2ccc(C(F)(F)F)cc2)nc2c1CSCC2 [XAV939]
inhibition of proliferation [7]: able to inhibit the proliferation | inhibition of proliferation [8]: had no effect on the proliferation | effect on growth / proliferation [9]: inhibits proliferation | inhibition of proliferation [10]: neither XAV939 nor Y-27632 inhibits proliferation | inhibition of proliferation [11]: able to inhibit the proliferation | inhibition of proliferation [12]: neither XAV939 nor Y-27632 inhibits proliferation | inhibition of proliferation [13]: had no effect on the proliferation | inhibition of proliferation [6, 16]: antagonize the proliferation

C[C@@H](N)[C@H]1CC[C@H](C(=O)Nc2ccncc2)CC1 [Y-27632]
effect on TEAD endogenous target gene expression [14]: antagonized | effect on transforming ability (colony formation in soft agar) ([15]; MCF10a cells overexpressing YAP): specifically and markedly impaired the transforming ability | effect on transforming ability (colony formation in soft agar) ([15]; MCF10a cells overexpressing mutant HRAS): lack of effects | effect on transforming ability (colony formation in soft agar) ([15]; MCF10a cells overexpressing p53 R175H (conformational)): lack of effects | effect on transforming ability (colony formation in soft agar) ([15]; MCF10a cells overexpressing p53 R273H (DNA contact)): specifically and markedly impaired the transforming ability | inhibition of colony formation ([10]; even at 100 μM, FIG. 5B): no detectable inhibition of colony formation | inhibition of proliferation [10]: neither XAV939 nor Y-27632 inhibits proliferation | growth inhibitory effects on any of the other tumor cells analyzed ([10]; tumor cells without p53 DNA contact mutation, FIG. 4B): without any obvious growth inhibitory effects | inhibition of proliferation [12]: neither XAV939 nor Y-27632 inhibits proliferation | effect on TEAD reporter ([3]; p53 DNA-contact mutant tumor lines, FIG. 4A): antagonized | inhibition of colony formation / proliferation ([6]; 10-50 uM, 3 different p53 contact mutant tumor cells, FIG. 5B): almost complete inhibition of colony formation; also recorded: specific inhibition of proliferation | inhibition of proliferation [6, 16]: specifically inhibiting the proliferation; also recorded: specifically inhibit the proliferation; also recorded: antagonize the proliferation; also recorded: specifically inhibited proliferation

Verteporfin
inhibition of proliferation [10]: inhibited the proliferation; also recorded: inhibiting proliferation | inhibition of proliferation [6, 16]: inhibit proliferation
